According to patent US20250059139A1, “COMPOUNDS FOR TREATMENT OF CANCER” (THE JOHNS HOPKINS UNIVERSITY, priority 2021, published 2025):
Like-named read-outs stand apart in the source and are kept apart here.

Tests used:
LNCaP cells = experiment: In vitro growth of LNCaP cells; format: cell-based, human; settings: for LNCaP growth when combined with 3 nM docetaxel: 10 μM compound + 3 nM docetaxel
Source text: Prostate Cancer Models. The source, history, and characteristics of the human prostate cancer cell lines and PDXs used, as well as cell culture conditions for their in vitro maintenance and the in vivo protocol for xenograft growth in triple immune-deficient NSG (i.e. NOD.Cg-PrkdcScidIl2rgtmlWji/Szj), adult (>8 week old) male mice obtained from the Sidney Kimmel Comprehensive Cancer Center (SKCCC) Animal Core Facility are described previously (Isaacs 2013; Brennen et al. JCI Insight. 2021, 6(8):e146827; Zhu et al. Oncogene 2020, 39(45): 6935-6949). Similar information concerning the TRAMP-C2 and B6CaP mouse prostate cancers originating in a C57BL/6J male mice are described previously (Foster et al. Cancer Res. 1997, 57: 3325-3330; Simons et al. Oncotarget. 2019, 10(64):6845-6854). In vitro growth curves were determined as described (Isaacs 2013). In vivo growth response to oral daily TasQ (10 mg/kg/d) of TRAMP-C2 mouse prostate cancers was evaluated in C57BL/6J syngeneic wild type vs. NOX-2 vs. iNOS null male mice obtained from Jackson Laboratory (Bar Harbor, ME). Growth response to oral daily TasQ (10 mg/kg/d) of TRAMP-C2 and B6CaP mouse prostate cancers was also evaluated in S100A9 null C57BL′6J male mice obtained from Dmitry Gabrilovich (Wistar Institute). All lines were mycoplasma negative using the MycoSensor PCR Assay kit (Agilent Technologies) and genetically authenticated within the last 6 months using short tandem repeat profiling conducted by the Johns Hopkins Genetic Resource Core Facility. In vitro growth curves were determined as described (Isaacs 2013). Growth response to daily oral TasQ vs. ESATA-20 (both at 10 mg/kg/d) of Myc-CaP-CR mouse prostate cancer was evaluated in syngeneic FVB/NJ castrate male mice from Jackson Laboratory. Animal studies were conducted according to animal protocols approved by Johns Hopkins Animal Care and Use Committee. Tumor volume measurements were as described previously (id.). In vivo experiments were repeated multiple independent times for each model used with 3-5 mice per treatment grouping.
Similarly, under such optimal conditions, knocking down HDAC4 expression by 50% with shRNA only decreases the growth of LNCaP cells by <25%, which is equivalent to the inhibition by TasQ at 10 μM (FIG. 22). […] In contrast to normoxic in vitro conditions, cancers outgrow their blood supply in vivo, producing a TME that is hypoxic, nutrient-limited, and acidic (low pH). For example, when prostate cancer xenografts growing subcutaneously reach a size of ˜0.2-0.3 cc, the TME is already hypoxic with a pO2 of 3.6+/−1.5 mmHg compared to 37.5+/−8.6 mmHg in normal tissue (Dalrymple et al. Prostate 72, 638-648 (2012)). […]

[1] = tested on: HIF-1α protein in LNCaP cells; experiment: Nuclear HIF-1α protein level in LNCaP cells (immunoblot); format: cell-based, human; settings: LNCaP cells in vitro, read-out: IC50 for decreasing nuclear HIF-1α protein
Experimental: Western Blot Analysis. Analysis and quantification of protein expression via immunoblot was performed as previously described (Brennen 2021). All assays were performed with total cell lysates from an equal number (i.e., 100,000) of cells loaded per lane for accurate comparisons across cell lines and conditions.
[…] is an HDAC4 client (see, e.g., Isaacs 2013) binding between AA 603-788 in its inhibitory domain to HDAC4 (Seo et al. FEBS Lett 583, 55-604 (2009)). As a client, the HDAC4/NCoR1/HDAC3 complex deacetylates the N-terminal lysines, which stabilizes and thus activates HIF-1α as a transcription factor (see, e.g., Isaacs 2013). In LNCaP cells under normoxic conditions, HIF-1α protein is low, cytoplasmic, and mostly unphosphorylated; while under hypoxic conditions, it is increased, nuclear, and phosphorylated (i.e., slower migrating band on western blot) (see, e.g., Isaacs 2013) (FIG. 30). HDAC4 KD in LNCaP prostate cancer cells prevents deacetylation-dependent stabilization, resulting in a reduction of nuclear HIF-1α protein (FIG. 31). […] The causal importance of decreased HIF-1α protein for in vivo growth was evaluated by knocking down HIF-1α protein expression in LNCaP cells (FIG. 31), and assessing xenograft growth.

Structure (SMILES) | LNCaP growth when combined with 3 nM docetaxel (LNCaP cells) | IC50 (LNCaP cells; Homo sapiens, LNCaP line) | IC50 ([1]; Homo sapiens) | inhibition at 10 µM (LNCaP cells; Homo sapiens, LNCaP, 10 μM, normoxic) | IC50 [1]
COc1cccc2c1c(O)c(C(=O)N(c1ccc(C(F)(F)F)cc1)C1CCCCC1)c(=O)n2C [ESATA-20] | completely inhibited | > 10000 nM | 1000 nM | – | –
COc1cccc2c1c(O)c(C(=O)N(C)c1ccc(C(F)(F)F)cc1)c(=O)n2C [TasQ, Tasquinimod] | does not occur | – | – | < 25% | 2500 nM
